The source of these data is ChEMBL document CHEMBL1157493, “Synthesis and screening of small molecule inhibitors of anthrax edema factor” (Bioorg Med Chem Lett, 2008).

The experiment addresses T1, Calmodulin-sensitive adenylate cyclase (Bacillus anthracis, UniProt P40136).
T1 sequence (P40136 whole entry): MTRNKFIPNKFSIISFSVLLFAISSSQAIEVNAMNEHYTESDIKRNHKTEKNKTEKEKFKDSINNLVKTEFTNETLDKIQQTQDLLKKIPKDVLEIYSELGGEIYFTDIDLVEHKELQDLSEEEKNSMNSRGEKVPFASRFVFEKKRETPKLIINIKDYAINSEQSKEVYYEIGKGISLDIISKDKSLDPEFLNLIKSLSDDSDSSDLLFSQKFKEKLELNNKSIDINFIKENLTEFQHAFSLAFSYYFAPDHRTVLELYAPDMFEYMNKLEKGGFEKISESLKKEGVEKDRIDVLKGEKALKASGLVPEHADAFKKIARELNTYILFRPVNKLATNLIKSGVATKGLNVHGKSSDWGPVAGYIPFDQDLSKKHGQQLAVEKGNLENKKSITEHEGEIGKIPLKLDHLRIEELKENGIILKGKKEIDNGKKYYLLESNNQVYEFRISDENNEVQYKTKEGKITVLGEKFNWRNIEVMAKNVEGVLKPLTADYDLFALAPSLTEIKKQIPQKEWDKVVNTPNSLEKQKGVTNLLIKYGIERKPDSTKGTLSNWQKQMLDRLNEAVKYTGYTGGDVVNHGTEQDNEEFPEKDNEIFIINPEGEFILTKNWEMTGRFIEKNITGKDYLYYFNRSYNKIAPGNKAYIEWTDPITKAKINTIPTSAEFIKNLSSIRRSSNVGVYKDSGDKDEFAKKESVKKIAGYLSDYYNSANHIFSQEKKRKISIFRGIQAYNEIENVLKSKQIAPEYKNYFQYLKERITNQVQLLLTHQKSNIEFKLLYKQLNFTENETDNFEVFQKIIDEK
The experiment is described as follows: Inhibition of Bacillus anthracis edema factor-induced edema in RAW264.7 mouse macrophages by cAMP-specific ELISA. The experiment is classed as cell-based. On the technique in general: ELISA stands for enzyme-linked immunosorbent assay.

For orientation: IC50 means the point on the concentration scale where inhibition reaches its midpoint. High values mean a need for much substance, low ones inhibition by little substance. In turn, `O=C1C=C(c2ccc3ncccc3c2)CCC1` had an IC50 of over 100 µM. `O=C1C=C(c2cccs2)CCC1` had an IC50 of over 100 µM.

For `Cn1cc(C2=CC(=O)CCC2)cn1`, the IC50 was over 100 µM.

The compound `O=C1C=C(c2cccnc2)CCC1` registered an IC50 of over 100 µM. The result for `O=C1C=C(c2ccsc2)CCC1` reads over 100 µM; that for `COc1cccc(C2=CC(=O)CCC2)n1`, over 100 µM. The result for `O=C1C=C(c2ccoc2)CCC1` reads over 100 µM. To `O=C1C=C(c2cccc3c2oc2ccccc23)CCC1` belongs over 100 µM; to `O=C1C=C(c2cccc(O)c2)CCC1`, over 100 µM; to `O=C1C=C(c2ccccc2)CCC1`, over 100 µM. As to `CC1(C)CC(=O)C=C(c2ccc3[nH]ccc3c2)C1`, the IC50 is over 100 µM. The result for `O=C1C=C(c2nccs2)CCC1` reads over 100 µM.

Compound `CC1(C)CC(=O)C=C(c2cccc3c2oc2ccccc23)C1` returned an IC50 of over 100 µM.
